Legend:
[1] = Microsomal stability, mouse; type: in vitro ADME; conditions: Table 4
[2] = Stability in simulated intestinal fluid; conditions: Table 4
[3] = Pharmacokinetics in Wistar rats (i.v., i.p.)
[4] = Microsomal stability, rat; type: in vitro ADME; conditions: Table 4
CYP1A2 = target: T1, CYP1A2 (Homo sapiens, UniProt P05177); assay: CYP1A2 inhibition; type: in vitro ADME; conditions: Table 4
T1 sequence (P05177 1-516): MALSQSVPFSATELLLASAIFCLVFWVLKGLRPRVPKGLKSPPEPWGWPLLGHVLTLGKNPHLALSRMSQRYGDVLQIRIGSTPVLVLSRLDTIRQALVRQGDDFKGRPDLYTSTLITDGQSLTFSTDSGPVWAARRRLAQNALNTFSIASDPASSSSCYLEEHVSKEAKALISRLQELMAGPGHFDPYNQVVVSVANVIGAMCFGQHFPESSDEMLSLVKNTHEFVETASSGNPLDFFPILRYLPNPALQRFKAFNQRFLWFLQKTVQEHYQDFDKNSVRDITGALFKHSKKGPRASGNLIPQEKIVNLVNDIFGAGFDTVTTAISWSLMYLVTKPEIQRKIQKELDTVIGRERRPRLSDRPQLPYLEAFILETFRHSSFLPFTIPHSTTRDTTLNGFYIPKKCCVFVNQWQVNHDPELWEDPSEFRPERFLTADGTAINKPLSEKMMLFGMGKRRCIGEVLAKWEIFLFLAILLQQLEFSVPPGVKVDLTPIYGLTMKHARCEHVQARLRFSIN

[5] = Aqueous solubility, pION method; conditions: mean ± SD, Table 4
in vivo = conditions: Wistar, rat, iv, 0.5 mg/kg
CYP2C19 = CYP2C19 (Homo sapiens, UniProt P33261); assay: CYP2C19 inhibition; type: in vitro ADME; conditions: Table 4
CYP3A4 = CYP3A4 (Homo sapiens, UniProt P08684); assay: CYP3A4 inhibition; type: in vitro ADME; conditions: Table 4
Plasma stability, mouse = conditions: Table 4
[6] = Stability in simulated gastric fluid; conditions: Table 4
Plasma stability, rat = conditions: Table 4
CYP2C9 = CYP2C9 (Homo sapiens, UniProt P11712); assay: CYP2C9 inhibition; conditions: read-out: CYP2C9 (IC50); Table 4
mP2Y14R = target: T2, mP2Y14R (Mus musculus, UniProt Q9ESG6); assay: cell-based
T2 sequence (Q9ESG6 1-338): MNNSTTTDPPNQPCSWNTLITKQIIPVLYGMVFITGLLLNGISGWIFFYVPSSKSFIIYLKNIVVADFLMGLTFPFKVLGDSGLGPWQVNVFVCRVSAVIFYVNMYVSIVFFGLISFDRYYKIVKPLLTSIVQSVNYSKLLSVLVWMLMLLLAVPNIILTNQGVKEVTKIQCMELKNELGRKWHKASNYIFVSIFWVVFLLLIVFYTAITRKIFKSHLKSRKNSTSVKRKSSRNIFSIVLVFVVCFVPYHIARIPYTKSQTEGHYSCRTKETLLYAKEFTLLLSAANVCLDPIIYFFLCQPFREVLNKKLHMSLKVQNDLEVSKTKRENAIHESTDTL
From the text: Desirably, receptor affinity is maintained across species, facilitating performance in in vivo preclinical testing in small animals, with the mouse being the most commonly used species in initial evaluation.

[7] = tested on: CCI-induced mechano-allodynia; assay: Chronic constriction injury (CCI) mouse model of neuropathic pain; conditions: 10 μmol/kg, i.p., day 7 post-injury
CYP2D6 = CYP2D6 (Homo sapiens, UniProt P10635); assay: CYP2D6 inhibition; type: in vitro ADME; conditions: Table 4
[8] = Microsomal stability, human; conditions: Table 4
hERG ion channel = hERG ion channel (Homo sapiens, UniProt Q12809); assay: hERG ion channel block, patch clamp assay
hP2Y14R = target: T3, hP2Y14R (Homo sapiens, UniProt Q15391); assay: Inhibition of fluorescent antagonist binding in whole hP2Y14R-expressing CHO cells (flow cytometry); conditions: Table 2; tracer 2 (20 nM, 45 min), CHO cells; read-out: hP2Y14R, IC50
T3 construct: expressed in transfected cells; host or cells: CHO cells
T3 sequence (Q15391 1-338): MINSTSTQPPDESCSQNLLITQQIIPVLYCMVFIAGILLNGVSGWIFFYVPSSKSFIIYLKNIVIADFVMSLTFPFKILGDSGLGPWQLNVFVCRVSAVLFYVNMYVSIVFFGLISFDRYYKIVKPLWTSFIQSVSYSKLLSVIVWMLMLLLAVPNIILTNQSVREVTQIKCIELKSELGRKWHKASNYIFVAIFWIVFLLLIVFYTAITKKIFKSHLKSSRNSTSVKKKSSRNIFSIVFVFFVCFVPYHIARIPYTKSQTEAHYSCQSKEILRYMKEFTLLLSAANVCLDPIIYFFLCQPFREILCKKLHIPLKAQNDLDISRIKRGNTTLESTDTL

Chain of CYP2C9 (P11712 whole entry): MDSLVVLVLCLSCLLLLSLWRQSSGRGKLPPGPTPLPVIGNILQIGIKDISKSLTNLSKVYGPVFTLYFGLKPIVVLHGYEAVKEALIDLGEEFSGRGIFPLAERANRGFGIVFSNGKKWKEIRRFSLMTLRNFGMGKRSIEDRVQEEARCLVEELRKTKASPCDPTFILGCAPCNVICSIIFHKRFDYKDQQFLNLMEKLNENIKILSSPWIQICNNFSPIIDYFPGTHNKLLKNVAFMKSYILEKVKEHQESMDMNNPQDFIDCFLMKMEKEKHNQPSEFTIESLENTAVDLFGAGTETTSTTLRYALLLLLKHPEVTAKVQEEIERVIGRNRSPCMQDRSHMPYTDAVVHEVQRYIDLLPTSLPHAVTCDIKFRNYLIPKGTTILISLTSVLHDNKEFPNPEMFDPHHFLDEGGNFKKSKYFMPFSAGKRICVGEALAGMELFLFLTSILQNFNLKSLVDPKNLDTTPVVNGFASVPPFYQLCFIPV
Chain of CYP2D6 (P10635 whole entry): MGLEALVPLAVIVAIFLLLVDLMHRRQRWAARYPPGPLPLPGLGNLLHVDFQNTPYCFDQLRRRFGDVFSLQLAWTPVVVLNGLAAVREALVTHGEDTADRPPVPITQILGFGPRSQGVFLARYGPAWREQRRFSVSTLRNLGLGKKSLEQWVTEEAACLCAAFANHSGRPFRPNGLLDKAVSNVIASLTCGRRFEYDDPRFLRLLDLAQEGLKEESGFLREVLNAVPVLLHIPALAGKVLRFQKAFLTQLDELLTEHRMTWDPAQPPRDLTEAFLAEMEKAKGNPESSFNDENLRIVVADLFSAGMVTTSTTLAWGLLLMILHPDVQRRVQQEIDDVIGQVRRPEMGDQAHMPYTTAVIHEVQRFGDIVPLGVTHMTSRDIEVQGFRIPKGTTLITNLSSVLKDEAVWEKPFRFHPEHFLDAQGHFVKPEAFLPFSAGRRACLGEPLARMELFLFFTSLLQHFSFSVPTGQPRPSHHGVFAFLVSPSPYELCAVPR
Chain of hERG ion channel (Q12809 whole entry): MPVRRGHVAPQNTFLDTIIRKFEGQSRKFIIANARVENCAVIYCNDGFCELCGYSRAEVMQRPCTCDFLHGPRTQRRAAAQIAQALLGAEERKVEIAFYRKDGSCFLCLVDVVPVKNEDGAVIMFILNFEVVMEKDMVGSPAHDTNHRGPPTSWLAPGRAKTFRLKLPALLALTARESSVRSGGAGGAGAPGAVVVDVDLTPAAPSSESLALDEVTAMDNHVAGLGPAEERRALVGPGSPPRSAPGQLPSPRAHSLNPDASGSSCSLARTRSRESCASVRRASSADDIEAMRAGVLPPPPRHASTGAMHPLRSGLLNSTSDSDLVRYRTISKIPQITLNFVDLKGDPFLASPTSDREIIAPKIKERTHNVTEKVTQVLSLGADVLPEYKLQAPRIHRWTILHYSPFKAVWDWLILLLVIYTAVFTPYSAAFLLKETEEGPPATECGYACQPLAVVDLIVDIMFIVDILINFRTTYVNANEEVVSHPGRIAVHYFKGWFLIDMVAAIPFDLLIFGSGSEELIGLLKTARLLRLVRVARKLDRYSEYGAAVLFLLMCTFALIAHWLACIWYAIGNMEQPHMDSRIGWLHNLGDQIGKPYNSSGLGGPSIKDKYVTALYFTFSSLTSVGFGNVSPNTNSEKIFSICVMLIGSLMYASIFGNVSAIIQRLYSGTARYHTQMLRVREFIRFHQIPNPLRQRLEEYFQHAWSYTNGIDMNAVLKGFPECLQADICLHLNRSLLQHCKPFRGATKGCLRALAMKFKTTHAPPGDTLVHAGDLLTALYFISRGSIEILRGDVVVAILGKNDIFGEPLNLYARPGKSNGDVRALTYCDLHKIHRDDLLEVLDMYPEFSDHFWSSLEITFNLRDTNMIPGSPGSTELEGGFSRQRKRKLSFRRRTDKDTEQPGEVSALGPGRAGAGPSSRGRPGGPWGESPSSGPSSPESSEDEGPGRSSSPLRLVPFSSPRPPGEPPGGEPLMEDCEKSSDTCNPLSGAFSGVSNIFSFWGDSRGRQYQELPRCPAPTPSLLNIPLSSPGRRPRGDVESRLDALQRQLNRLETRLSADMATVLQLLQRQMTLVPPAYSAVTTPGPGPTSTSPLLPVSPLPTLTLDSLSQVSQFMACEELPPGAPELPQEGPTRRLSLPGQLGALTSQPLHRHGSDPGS
Chain of CYP3A4 (P08684 whole entry): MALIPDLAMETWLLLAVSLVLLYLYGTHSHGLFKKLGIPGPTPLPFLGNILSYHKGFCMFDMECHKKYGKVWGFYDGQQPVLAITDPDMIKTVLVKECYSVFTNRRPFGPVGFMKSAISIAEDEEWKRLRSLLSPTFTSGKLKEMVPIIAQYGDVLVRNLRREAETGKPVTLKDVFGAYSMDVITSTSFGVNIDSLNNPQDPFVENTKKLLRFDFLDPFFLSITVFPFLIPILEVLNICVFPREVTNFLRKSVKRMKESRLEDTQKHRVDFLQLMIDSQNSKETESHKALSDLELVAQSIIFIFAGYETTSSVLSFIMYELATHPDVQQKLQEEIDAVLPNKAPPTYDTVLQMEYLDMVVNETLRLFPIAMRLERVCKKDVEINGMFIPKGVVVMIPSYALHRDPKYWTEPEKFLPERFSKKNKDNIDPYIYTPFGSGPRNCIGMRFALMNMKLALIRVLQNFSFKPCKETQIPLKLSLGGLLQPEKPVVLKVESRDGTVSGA
Chain of CYP2C19 (P33261 whole entry): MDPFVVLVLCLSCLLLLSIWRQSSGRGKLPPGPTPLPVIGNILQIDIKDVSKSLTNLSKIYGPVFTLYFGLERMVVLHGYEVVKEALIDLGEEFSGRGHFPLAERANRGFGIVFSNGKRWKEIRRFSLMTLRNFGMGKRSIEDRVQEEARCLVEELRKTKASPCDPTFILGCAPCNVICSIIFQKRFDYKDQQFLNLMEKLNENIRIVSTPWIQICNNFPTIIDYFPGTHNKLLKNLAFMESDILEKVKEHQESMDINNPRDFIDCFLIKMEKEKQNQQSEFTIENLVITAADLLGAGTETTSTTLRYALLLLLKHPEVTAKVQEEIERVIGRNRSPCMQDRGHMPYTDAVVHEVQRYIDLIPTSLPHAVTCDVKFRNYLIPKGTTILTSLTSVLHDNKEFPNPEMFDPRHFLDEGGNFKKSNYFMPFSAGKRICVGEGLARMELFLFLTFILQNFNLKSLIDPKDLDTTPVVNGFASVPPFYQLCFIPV

O=C(O)c1cc(-c2ccc(-c3cc(CO)on3)cc2)c2ccc(-c3ccc(C(F)(F)F)cc3)cc2c1 [Compound 32, 4-(4-(5-(Hydroxymethyl)isoxazol-3-yl)phenyl)-7-(4-(trifluoromethyl)phenyl)-2-naphthoic acid]
Microsomal stability (t1/2, min) [1]: >240 (m) min | Simulated intestinal fluid (t1/2, min) [2]: >240 min | t1/2 ([3]; i.v. administration in rat, 0.5 mg/kg, Table 4): 0.689 h | AUC0-last ([3]; rat, i.p., 1.0 mg/kg): 650 ng·h/mL | AUC0-∞ ([3]; rat, i.p., 1.0 mg/kg): 700 ng·h/mL | Cl ([3]; rat, i.p., 1.0 mg/kg): 23.83 mL/min/kg | Cmax ([3]; rat, i.p., 1.0 mg/kg): 88.4 ng/mL | F (%) ([3]; rat, i.p., 1.0 mg/kg): 139% | Kel ([3]; rat, i.p., 1.0 mg/kg): 0.096 h⁻¹ | T1/2 ([3]; rat, i.p., 1.0 mg/kg): 7.23 h | Vd (mL/kg) ([3]; rat, i.p., 1.0 mg/kg): 14,900 mL/kg | AUC0-last ([3]; rat, i.p., 3.0 mg/kg): 2060 ng·h/mL | AUC0-∞ ([3]; rat, i.p., 3.0 mg/kg): 2120 ng·h/mL | Cl ([3]; rat, i.p., 3.0 mg/kg): 23.67 mL/min/kg | Cmax ([3]; rat, i.p., 3.0 mg/kg): 315 ng/mL | F (%) ([3]; rat, i.p., 3.0 mg/kg): 147% | Kel ([3]; rat, i.p., 3.0 mg/kg): 0.148 h⁻¹ | T1/2 ([3]; rat, i.p., 3.0 mg/kg): 4.68 h | Vd ([3]; rat, i.p., 3.0 mg/kg): 9.57 L/kg | AUC0-last ([3]; rat, i.p., 10 mg/kg): 4900 ng·h/mL | AUC0-∞ ([3]; rat, i.p., 10 mg/kg): 4920 ng·h/mL | Cl ([3]; rat, i.p., 10 mg/kg): 33.83 mL/min/kg | Cmax ([3]; rat, i.p., 10 mg/kg): 786 ng/mL | F (%) ([3]; rat, i.p., 10 mg/kg): 105% | Kel ([3]; rat, i.p., 10 mg/kg): 0.233 h⁻¹ | T1/2 ([3]; rat, i.p., 10 mg/kg): 2.98 h | Vd ([3]; rat, i.p., 10 mg/kg): 8.73 L/kg | AUC0-last ([3]; rat, i.v., 0.5 mg/kg): 234 ng·h/mL | AUC0-∞ ([3]; rat, i.v., 0.5 mg/kg): 238 ng·h/mL | Cl ([3]; rat, i.v., 0.5 mg/kg): 35.17 mL/min/kg | Cmax ([3]; rat, i.v., 0.5 mg/kg): 359 ng/mL | Kel ([3]; rat, i.v., 0.5 mg/kg): 1.01 h⁻¹ | T1/2 ([3]; rat, i.v., 0.5 mg/kg): 0.689 h | Vd ([3]; rat, i.v., 0.5 mg/kg): 2.09 L/kg | Microsomal stability (t1/2, min) [4]: 47.7 min | IC50 (CYP1A2): > 30 µM | aqueous solubility (pH 4.0, μg/mL) ([5]; pH 4.0): 0.14 ± 0.02 μg/mL | aqueous solubility (pH 7.4, μg/mL) ([5]; pH 7.4): 7.63 ± 1.93 μg/mL | bioavailability (in vivo): 100% | IC50 (CYP2C19): > 30 µM | IC50 (CYP3A4): > 30 µM | Plasma stability (t1/2, min) (Plasma stability, mouse): >240 (m) min | Simulated gastric fluid (t1/2, min) [6]: 161 min | Plasma stability (t1/2, min) (Plasma stability, rat): TBD (h); >240 (r); min | IC50 (CYP2C9): 10.4 µM | affinity at the mP2Y14R vs the human homologue (mP2Y14R; comparison of species, in words): nearly the same affinity in the two species | IC50 (mP2Y14R; read-out: mP2Y14R, IC50, Table 2, tracer 2 (20 nM, 45 min), HEK293 cells): 0.0186 ± 0.0084 µM | reversal of mechano-allodynia (figure legend) [7]: reversal of CCI-induced mechano-allodynia | IC50 (CYP2D6): > 30 µM | Microsomal stability (t1/2, min) [8]: > 240 min | IC50 (hERG ion channel): > 30 µM | IC50 (hP2Y14R): 0.015 ± 0.0044 µM
